From ChEMBL document CHEMBL3632493, “Design, synthesis and anticancer mechanistic studies of linked azoles” (Medchemcomm, 2015)
One block for each compound: values may come before it. The source made the active and inactive calls. The rule behind the calls is not given here.

Key:
HCT-116 [1] = test: Anticancer activity against human HCT116 cells assessed as growth inhibition at 50 uM by CCK-8 assay; assay type: functional
HCT-116 [2] = test: Anticancer activity against human HCT116 cells assessed as growth inhibition by CCK-8 assay; assay type: functional, cell-based
HCT-116 [3] = test: Decrease in mitotic index in human HCT116 cells at 100 nM after 20 and 24 hrs by flow cytometry; assay type: functional, cell-based
HCT-116 [4] = test: Induction of DNA damage in human HCT116 cells at G0/G1 phase at 100 nM after 24 hrs by gamma-H2AX-staining based-flow cytometry; assay type: functional, cell-based
HCT-116 [5] = test: Induction of DNA damage in human HCT116 cells at G0/G1 phase at 20 nM after 24 hrs by gamma-H2AX-staining based-flow cytometry; assay type: functional, cell-based
HCT-116 [6] = test: Increase in mitotic index in human HCT116 cells at 20 nM after 20 and 24 hrs by flow cytometry; assay type: functional, cell-based
HCT-116 [7] = test: Induction of apoptosis in human HCT116 cells at 30 uM after 30 hrs by annexin-V/7-AAD staining based flow cytometry; assay type: functional
HCT-116 [8] = test: Induction of DNA damage in human HCT116 cells at G0/G1 phase at 30 uM after 24 hrs by gamma-H2AX-staining based-flow cytometry; assay type: functional, cell-based
HCT-116 [9] = test: Decrease in mitotic index in human HCT116 cells after 20 and 24 hrs by flow cytometry; assay type: functional, cell-based
HCT-116 [10] = test: Induction of DNA damage in human HCT116 cells at G0/G1 phase at 20 and 30 uM after 24 hrs by gamma-H2AX-staining based-flow cytometry; assay type: functional, cell-based
HCT-116 [11] = test: Cell cycle arrest in human HCT116 cells assessed as increase in number of cells at G2/M phase at 20 and 30 uM after 20 hrs by propidium-iodide staining based flow cytometry; assay type: functional
HCT-116 [12] = test: Cell cycle arrest in human HCT116 cells assessed as decrease in number of cells at S phase at 20 and 30 uM after 20 hrs by propidium-iodide staining based flow cytometry; assay type: functional
HCT-116 [13] = test: Cell cycle arrest in human HCT116 cells assessed as decrease in number of cells at G0/G1 phase at 20 and 30 uM after 20 hrs by propidium-iodide staining based flow cytometry; assay type: functional
HCT-116 [14] = test: Decrease in mitotic index in human HCT116 cells at 30 and 50 uM by flow cytometry; assay type: functional, cell-based; conditions: TDE = time-dependent effect

SMILES: CCOC(=O)c1csc(-c2csc(-c3csc([C@@H](C)NC(=O)OC(C)(C)C)n3)n2)n1
inhibition (HCT-116 [1]): Active

IC50 (HCT-116 [2]): 38.1 µM
SMILES: C[C@H](NC(=O)OC(C)(C)C)c1nc(-c2nc(-c3nc(C(N)=S)cs3)cs2)cs1
inhibition at 50 µM (HCT-116 [1]): 70%

SMILES: COc1cccc2c1C(=O)c1c(O)c3c(c(O)c1C2=O)C[C@@](O)(C(=O)CO)C[C@@H]3O[C@H]1C[C@H](N)[C@H](O)[C@H](C)O1
inhibition (HCT-116 [3]): Active
Activity (HCT-116 [4]): Active

SMILES: CC(=O)O[C@H]1C(=O)[C@@]2(C)[C@H]([C@H](OC(=O)c3ccccc3)[C@]3(O)C[C@H](OC(=O)[C@H](O)[C@@H](NC(=O)c4ccccc4)c4ccccc4)C(C)=C1C3(C)C)[C@]1(OC(C)=O)CO[C@@H]1C[C@@H]2O
Activity (HCT-116 [5]): Active
Activity (HCT-116 [6]): Active

IC50 (HCT-116 [2]): 22.4 µM
SMILES: C[C@@H](NC(=O)OC(C)(C)C)c1nc(-c2nc(-c3nc(C(N)=O)cs3)cs2)cs1
Activity (HCT-116 [7]): 30%
inhibition at 50 µM (HCT-116 [1]): 70%
Activity (HCT-116 [8]): Active

IC50 (HCT-116 [2]): 7.6 µM
SMILES: C[C@H](NC(=O)OC(C)(C)C)c1nc(-c2nc(-c3nc(C(N)=O)cs3)cs2)cs1
inhibition (HCT-116 [9]): Dose-dependent effect
Activity (HCT-116 [10]): Active
Activity (HCT-116 [11]): Active
Activity (HCT-116 [7]): 60%
Activity (HCT-116 [12]): Active
inhibition at 50 µM (HCT-116 [1]): 70%
Activity (HCT-116 [13]): Active
inhibition (HCT-116 [14]): tde

SMILES: CCOC(=O)c1csc(-c2csc(-c3csc([C@H](C)NC(=O)OC(C)(C)C)n3)n2)n1
inhibition (HCT-116 [1]): Active

IC50 (HCT-116 [2]): 45.2 µM
SMILES: C[C@@H](NC(=O)OC(C)(C)C)c1nc(-c2nc(-c3nc(C(N)=S)cs3)cs2)cs1
inhibition at 50 µM (HCT-116 [1]): 70%
